Measurements reported in patent publication US10442803B2, “Tricyclic heterocycles as bet protein inhibitors” (Incyte Corporation, priority 2013, dated 2019).
Structures can show the parent of a compound that is named as a salt.

System: KMS.12.BM cells
Experiment: KMS.12.BM cell viability assay
Format: cell-based
Conditions: 72 h; KMS.12.BM human myeloma cells, 3 days, Cell Titer-GLO ATP quantitation; read-out: KMS cellular IC50
Summary of the method: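 IC50 derived from luminescent ATP quantitation (Cell Titer-GLO) of viable cells after 3-day compound treatment. KMS.12.BM human myeloma line seeded at 5000 cells/well in RPMI with 10% FBS.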

Question: For `Cc1nnc2ccc3c(cc(-c4ccn(CCCO)n4)n3Cc3cccc(Cl)c3)n12` [Example 173, 3-{3-[6-(3-Chlorobenzyl)-1-methyl-6H-pyrrolo[2,3-e][1,2,4]triazolo[4,3-a]pyridin-7-yl]-1H-pyrazol-1-yl}propan-1-ol trifluoroacetate salt], which IC50 is on record?
Answer: ≤ 1000 nM

Question: How did the IC50 turn out when `Cc1nnc2ccc3c(cc(-c4ncco4)n3Cc3cccc(Cl)c3)n12` [Example 194, 6-(3-Chlorobenzyl)-1-methyl-7-(1,3-oxazol-2-yl)-6H-pyrrolo[2,3-e][1,2,4]triazolo[4,3-a]pyridine trifluoroacetate salt] was run?
Answer: ≤ 1000 nM

Question: For `Cc1cc2c(cc(NC3CCN(C)CC3)c3nnc(C)n32)n1Cc1cccnc1` [Example 154, 1,7-dimethyl-N-(1-methylpiperidin-4-yl)-6-(pyridin-3-ylmethyl)-6H-pyrrolo[2,3-e][1,2,4]triazolo[4,3-a]pyridin-4-amine], which IC50 is on record?
Answer: ≤ 1000 nM

Question: How did the IC50 turn out when `Cc1nnc2ccc3c(cc(-c4ccsc4)n3Cc3ccccc3)n12` [Example 72, 6-benzyl-1-methyl-7-(3-thienyl)-6H-pyrrolo[2,3-e][1,2,4]triazolo[4,3-a]pyridine] was run?
Answer: ≤ 1000 nM

Question: How did the IC50 turn out when `Cc1cc2c(cc(Nc3cccnc3)c3nnc(C)n32)n1Cc1ccccc1` [Example 256, 6-Benzyl-1,7-dimethyl-N-(pyridin-3-yl)-6H-pyrrolo[2,3-e][1,2,4]triazolo[4,3-a]pyridin-4-amine] was run?
Answer: ≤ 1000 nM

Question: `Cc1nnc2ccc3c(cc(-c4ccn(C5COC5)n4)n3Cc3cccc(Cl)c3)n12` [Example 177, 6-(3-Chlorobenzyl)-1-methyl-7-(1-oxetan-3-yl-1H-pyrazol-3-yl)-6H-pyrrolo[2,3-e][1,2,4]triazolo[4,3-a]pyridine trifluoroacetate salt] was tested. Which IC50 did it give?
Answer: ≤ 1000 nM

Question: With `Cc1nnc2ccc3c(cc(C(N)=O)n3Cc3ccccc3)n12` [Example 58, 6-benzyl-1-methyl-6H-pyrrolo[2,3-e][1,2,4]triazolo[4,3-a]pyridine-7-carboxamide] as the molecule, how does the IC50 read?
Answer: ≤ 1000 nM

Question: Which IC50 does the source give for `CNC(=O)c1cc2c(ccc3nnc(C)n32)n1Cc1cccc(F)c1` [Example 102, 6-(3-fluorobenzyl)-N,1-dimethyl-6H-pyrrolo[2,3-e][1,2,4]triazolo[4,3-a]pyridine-7-carboxamide] here?
Answer: ≤ 1000 nM

Question: For `Cc1cc2c(cc(NC(N)=O)c3nnc(C)n32)n1Cc1cccc(F)c1` [Example 235, 1-(6-(3-Fluorobenzyl)-1,7-dimethyl-6H-pyrrolo[2,3-e][1,2,4]triazolo[4,3-a]pyridin-4-yl)urea], which IC50 is on record?
Answer: ≤ 1000 nM

Question: For `Cc1nnc2ccc3c(cc(-c4ccn(C5CN(C(=O)CN(C)C)C5)n4)n3Cc3cccc(Cl)c3)n12` [Example 162, 2-(3-{3-[6-(3-Chlorobenzyl)-1-methyl-6H-pyrrolo[2,3-e][1,2,4]triazolo[4,3-a]pyridin-7-yl]-1H-pyrazol-1-yl}azetidin-1-yl)-N,N-dimethyl-2-oxoethanamine bis(trifluoroacetate) salt], which IC50 is on record?
Answer: ≤ 1000 nM

Question: For `Cc1cc2c(cc(NC3CN(C(=O)OC(C)(C)C)C3)c3nnc(C)n32)n1Cc1ccccc1` [Example 244, tert-Butyl 3-(6-benzyl-1,7-dimethyl-6H-pyrrolo[2,3-e][1,2,4]triazolo[4,3-a]pyridin-4-ylamino)azetidine-1-carboxylate], which IC50 is on record?
Answer: ≤ 1000 nM

Question: With `CN[C@H]1CC[C@@H](Nc2cc3c(cc(C)n3Cc3ccccc3)n3c(C)nnc23)CC1` [Example 221, cis-N-(6-Benzyl-1,7-dimethyl-6H-pyrrolo[2,3-e][1,2,4]triazolo[4,3-a]pyridin-4-yl)-N′-methylcyclohexane-1,4-diamine] as the molecule, how does the IC50 read?
Answer: 1000 to 10000 nM

Question: How did the IC50 turn out when `Cc1cc2c(cc(NCCN(C)C)c3nnc(C)n32)n1Cc1ccccc1` [Example 246, N1-(6-Benzyl-1,7-dimethyl-6H-pyrrolo[2,3-e][1,2,4]triazolo[4,3-a]pyridin-4-yl)-N2,N2-dimethylethane-1,2-diamine] was run?
Answer: ≤ 1000 nM

Question: For `Cc1cc2c(cc(NC(N)=O)c3nnc(C)n32)n1Cc1ccc(F)cc1F` [Example 236, 1-(6-(2,4-Difluorobenzyl)-1,7-dimethyl-6H-pyrrolo[2,3-e][1,2,4]triazolo[4,3-a]pyridin-4-yl)urea], which IC50 is on record?
Answer: ≤ 1000 nM

Question: Which IC50 does the source give for `Cc1cc2c(ccc3nnc(C)n32)n1Cc1cccc(C(=O)NO)c1` [Example 31, 3-[(1,7-dimethyl-6H-pyrrolo[2,3-e][1,2,4]triazolo[4,3-a]pyridin-6-yl)methyl]-N-hydroxybenzamide trifluoroacetate salt] here?
Answer: 1000 to 10000 nM

Question: `Cc1nnc2ccc3c(cc(-c4cncs4)n3Cc3ccccc3)n12` [Example 69, 6-benzyl-1-methyl-7-(1,3-thiazol-5-yl)-6H-pyrrolo[2,3-e][1,2,4]triazolo[4,3-a]pyridine] was tested. Which IC50 did it give?
Answer: ≤ 1000 nM

Question: How did the IC50 turn out when `Cc1cc2c(cc(N[C@H]3CCNC3)c3nnc(C)n32)n1Cc1ccccc1` [Example 152, 6-benzyl-1,7-dimethyl-N-[(3S)-pyrrolidin-3-yl]-6H-pyrrolo[2,3-e][1,2,4]triazolo[4,3-a]pyridin-4-amine bis(trifluoroacetate) salt] was run?
Answer: ≤ 1000 nM

Question: With `Cc1cc2c(ccc3nnc(C)n32)n1Cc1ccc(CN2CCC2)cc1` [Example 50, 6-[4-(azetidin-1-ylmethyl)benzyl]-1,7-dimethyl-6H-pyrrolo[2,3-e][1,2,4]triazolo[4,3-a]pyridine] as the molecule, how does the IC50 read?
Answer: 1000 to 10000 nM

Question: `Cc1nnc2ccc3c(cc(-c4ccn(C)n4)n3Cc3cc(Cl)cc(CN4CCC4)c3)n12` [Example 185, 6-[3-(Azetidin-1-ylmethyl)-5-chlorobenzyl]-1-methyl-7-(1-methyl-1H-pyrazol-3-yl)-6H-pyrrolo[2,3-e][1,2,4]triazolo[4,3-a]pyridine tris(trifluoroacetate) salt] was tested. Which IC50 did it give?
Answer: ≤ 1000 nM

Question: How did the IC50 turn out when `Cc1cc2c(cc(NC(N)=O)c3nnc(C)n32)n1Cc1ccccc1F` [Example 238, 1-(6-(2-Fluorobenzyl)-1,7-dimethyl-6H-pyrrolo[2,3-e][1,2,4]triazolo[4,3-a]pyridin-4-yl)urea] was run?
Answer: 1000 to 10000 nM

Question: With `CNC(=O)c1cccc(Cn2c(C)cc3c2ccc2nnc(C)n23)c1` [Example 32, 3-[(1,7-dimethyl-6H-pyrrolo[2,3-e][1,2,4]triazolo[4,3-a]pyridin-6-yl)methyl]-N-methylbenzamide trifluoroacetate salt] as the molecule, how does the IC50 read?
Answer: ≤ 1000 nM

Question: With `Cc1nnc2ccc3c(cc(CO)n3Cc3ccccc3)n12` [Example 56, (6-benzyl-1-methyl-6H-pyrrolo[2,3-e][1,2,4]triazolo[4,3-a]pyridin-7-yl)methanol] as the molecule, how does the IC50 read?
Answer: 1000 to 10000 nM

Question: With `Cc1cc2c(cc(O)c3nnc(C)n32)n1Cc1ccccc1` [Example 204, 6-Benzyl-1,7-dimethyl-6H-pyrrolo[2,3-e][1,2,4]triazolo[4,3-a]pyridin-4-ol trifluoroacetate salt] as the molecule, how does the IC50 read?
Answer: 1000 to 10000 nM

Question: For `CCCC(=O)Nc1cc2c(cc(C)n2Cc2ccccc2)n2c(C)nnc12` [Example 267, N-(6-Benzyl-1,7-dimethyl-6H-pyrrolo[2,3-e][1,2,4]triazolo[4,3-a]pyridin-4-yl)butyramide], which IC50 is on record?
Answer: ≤ 1000 nM

Question: For `Cc1nnc2ccc3c(cc(-c4ccn(CCC(=O)N5CCOCC5)n4)n3Cc3cccc(Cl)c3)n12` [Example 169, 6-(3-Chlorobenzyl)-1-methyl-7-[1-(3-morpholin-4-yl-3-oxopropyl)-1H-pyrazol-3-yl]-6H-pyrrolo[2,3-e][1,2,4]triazolo[4,3-a]pyridine trifluoroacetate salt], which IC50 is on record?
Answer: ≤ 1000 nM

Question: `Cc1nnc2ccc3c(cc(-c4ncco4)n3Cc3cc(Cl)cc(CN4CCCC4)c3)n12` [Example 197, 6-[3-Chloro-5-(pyrrolidin-1-ylmethyl)benzyl]-1-methyl-7-(1,3-oxazol-2-yl)-6H-pyrrolo[2,3-e][1,2,4]triazolo[4,3-a]pyridine bis(trifluoroacetate) salt] was tested. Which IC50 did it give?
Answer: ≤ 1000 nM
